Source: patent publication US6620916B1, “Modified physiologically active proteins and medicinal compositions containing the same” (Ajinomoto Co., Inc., priority 1996, dated 2003)
“Also recorded” adds a separate entry of the source.

Key:
[1] = biological target: T1, ASGR (Mus musculus, UniProt P24721+P34927); experiment: Hepatocyte binding test with 125I-labeled ligands, Scatchard analysis; conditions: mouse hepatocytes, 4° C., 2 hours
T1 construct: endogenous in cells; host or cells: primary hepatocytes from C57BL/6 mice (7W, male)
T1 sequence (P34927 1-284): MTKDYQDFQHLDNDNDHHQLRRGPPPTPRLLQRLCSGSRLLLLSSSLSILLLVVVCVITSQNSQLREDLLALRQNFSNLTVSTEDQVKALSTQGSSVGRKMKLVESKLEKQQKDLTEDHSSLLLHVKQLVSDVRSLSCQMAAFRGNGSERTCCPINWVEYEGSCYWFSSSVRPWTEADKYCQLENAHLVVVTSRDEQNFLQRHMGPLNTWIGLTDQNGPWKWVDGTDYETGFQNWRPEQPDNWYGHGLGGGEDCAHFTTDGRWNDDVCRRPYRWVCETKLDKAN
T1 sequence (P24721 1-301): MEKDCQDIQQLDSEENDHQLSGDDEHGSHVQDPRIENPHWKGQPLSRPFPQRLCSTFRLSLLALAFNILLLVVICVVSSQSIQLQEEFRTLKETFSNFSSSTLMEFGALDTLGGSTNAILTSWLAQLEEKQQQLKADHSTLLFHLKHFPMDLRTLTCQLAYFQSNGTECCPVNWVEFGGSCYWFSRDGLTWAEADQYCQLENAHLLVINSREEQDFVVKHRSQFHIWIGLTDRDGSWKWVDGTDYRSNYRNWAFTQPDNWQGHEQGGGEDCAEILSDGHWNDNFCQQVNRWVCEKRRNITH
Description: The test for binding of a modified product to hepatocytes was conducted using mouse-separated hepatocytes prepared by the collagenase reflux method which is a modification of the method of Berry et al. (M. N. Berry et al., J. Cell Biol., 43, 506-520 (1969)). That is, seven mice (C57BL/6, 7W, male) were refluxed with a collagenase (type I, supplied by Wako Pure Chemical Industries, Ltd.) and each liver thereof was then severed. Each liver was filtered using a cell filter. Hepatocytes were then collected through centrifugation at a low rate (50 g×1 min), and incubated for from 1 to 4 hours in a D-MEM medium containing 10% FBS (supplied by Gibco, containing 100 U/ml of penicillin, 100 μg/ml of streptomycin and 50 μg/ml of gentamicin) using a tissue culture dish of 150 mm (supplied by Iwaki Garasu K.K.). […]
The hepatocyte binding test was conducted by the method of Chang et al. (T. Chang et al., BBA 942. 57-64 (1988)). […] Thereafter, the radioactivity by the non-specific binding was subtracted from the radioactivity of 0.8 ml of 1 ml of the 0.1 N NaOH solution containing 0.5% SDS, and the radioactivity of the total amount thereof was calculated from the above-obtained value. The thus-calculated value was defined as an amount of a bound fraction. […] The total protein amount of the cells was calculated by the Lorry method using 0.1 ml of the solution. […]

[2] = tested on: mouse-separated hepatocytes; experiment: Uptake of 125I-labeled modified product into hepatocytes; assay type: cell-based; conditions: 24 nM, 37° C.
Description: The test for uptake into hepatocytes was also conducted according to the method of Chang et al (T. Chang et al., BBA 942. 57-64 (1988)). The cells which were approximately in the almost confluent state were washed once with a D-MEM medium (pH 7.4) containing 0.1% BSA and 10 mM Hepes, and the buffer was added thereto. The mixture was incubated in 5% CO2 at 37° C. for 30 minutes. […] On the other hand, the non-specific uptake was conducted by adding 100 mM N-acetylgalactosamine in each of the labeled solutions. Each plate incubated was moved on an ice bath after the reaction. A part of the medium was sampled, and a D-PBS solution (free from Ca^2+ and Mg^2+) containing 20 mM EGTA cooled at 4° C. was added thereto. The mixture was allowed to stand for 5 minutes. This washing was repeated twice. Further, the plate was washed once with a D-PBS solution (free from Ca^2+ and Mg^2+) cooled, and then allowed to stand at −20° C. for 30 minutes or more. The radioactivity by the non-specific binding was subtracted from the radioactivity of 0.8 ml of 1 ml of the 0.1 N NaOH solution containing 0.5% SDS in each well, and the radioactivity of the total amount thereof was calculated from the above-obtained value. The thus-calculated value was defined as an amount of an uptake fraction. Meanwhile, a value obtained by subtracting the radioactivity by the non-specific degradation from the radioactivity of the total trichloroacetic acid-soluble fraction in the medium was defined as an amount of a degradation fraction. The uptake tast was conducted with each point of n=3. The total protein amount of the cells was calculated by the Lorry method with respect to 0.1 ml of the solution.

Compound | dissociation constant (Kd1) of high affinity site [1] | time to saturation of uptake [2] [h] | degradation component ([2]; 0-4 hours) | uptake component in hepatocytes ([2]; 0-4 hours)
CC(C)(C)OC(=O)NC(Cc1ccc(O)cc1)C(=O)NCCCCCC(=O)NC(CCC(=O)NC(CCC(=O)NCCOCCOCCOC1OC(CO)C(O)C(O)C1O)C(=O)NCCOCCOCCOC1OC(CO)C(O)C(O)C1O)C(=O)NCCOCCOCCOC1OC(CO)C(O)C(O)C1O (centres unmarked) [(Gal)3-Tyr-Boc] | in the order level of multi-ten nM |  |  | 
ASOR: asialoorosomucoid produced from human orosomucoid, natural ligand of ASGR |  | 1 | gradually increased with the lapse of time | observed after 30 minutes of the incubation
CC(=O)NC1C(OCCOCCOCCNC(=O)CCC(NC(=O)CCC(NC(=O)CCCCCNC(=O)C(Cc2ccc(O)cc2)NC(=O)OC(C)(C)C)C(=O)NCCOCCOCCOC2OC(CO)C(O)C(O)C2NC(C)=O)C(=O)NCCOCCOCCOC2OC(CO)C(O)C(O)C2NC(C)=O)OC(CO)C(O)C1O (centres unmarked) [(GalNAc)3-Tyr-Boc] | in the order level of multi-ten nM; also recorded: lower than that of (Gal)3-Tyr-Boc |  |  | 
